This passage reports IC50 results from patent US20140073628A1, “BENZOXAZEPINES ASN INHIBITORS OF P13K/M TOR AND METHODS OF THEIR USE AND MANUFACTURE” (priority 2010, published 2014).

Some results are limits rather than exact numbers.

For the assay, the target named is mTOR/GbL/Raptor (mTORC1) (Homo sapiens, UniProt P42345). The assay is described as follows: mTOR/GbL/Raptor (mTORC1) ELISA assay. The format is biochemical. The note with it: phosphorylation of 4E-BP1; 0.2 nM mTORC1, 10 μM ATP, 50 nM NHis-tagged 4E-BP1. As for the experimental part:
mTOR/GbL/Raptor (mTORC1) ELISA Assay
The measurement of mTORC1 enzyme activity was performed in an ELISA assay format following the phosphorylation of 4E-BP1 protein. All experiments were performed in the 384-well format. Generally, 0.5 μL DMSO containing varying concentrations of the test compound was mixed with 15 μL enzyme solution. Kinase reactions were initiated with the addition of 15 μL of substrates-containing solution. The assay conditions were as follows; 0.2 nM mTORC1, 10 μM ATP and 50 nM NHis-tagged 4E-BP1 in 20 mM Hepes, pH 7.2, 1 mM DTT, 50 mM NaCl, 10 mM MnCl2, 0.02 mg/mL BSA, 0.01% CHAPS, 50 mM β-glycerophosphate. Following an incubation of 120 minutes at ambient temperature, 20 μL of the reaction volume was transferred to a Ni-Chelate-coated 384-well plate. The binding step of the 4E-BP1 protein proceeded for 60 minutes, followed by washing 4 times each with 50 μL of Tris-buffered saline solution (TBS). Anti-phospho-4E-BP1 rabbit-IgG (20 μL, 1:5000) in 5% BSA-TBST (0.2% Tween-20 in TBS) was added and further incubated for 60 minutes. Incubation with a secondary HRP-tagged anti-IgG was similarly performed after washing off the primary antibody (4 washes of 50 μL). Following the final wash step with TBST, 20 μL of SuperSignal ELISA Femto (Pierce Biotechnology) was added and the luminescence measured using an EnVision plate reader.
(In general: An ELISA detects its analyte on a solid surface through an enzyme-linked reagent.)
`CC(=O)NCc1nc2c(c(N3CCOc4ccc(-c5ccc6[nH]c(C)nc6c5)cc4C3)n1)CC(C)(C)CC2` [Compound 26, N-({6,6-dimethyl-4-[7-(2-methyl-1H-benzimidazol-5-yl)-2,3-dihydro-1,4-benzoxazepin-4(5H)-yl]-5,6,7,8-tetrahydroquinazolin-2-yl}methyl)acetamide] returned a half-maximal inhibitory concentration (IC50) of at most 100 nM.

For the molecule `CC1(C)CCc2nc(N)nc(N3CCOc4ccc(-c5ccc6[nH]cnc6c5)cc4C3)c2C1` [Compound 27, 4-[7-(1H-benzimidazol-5-yl)-2,3-dihydro-1,4-benzoxazepin-4(5H)-yl]-6,6-dimethyl-5,6,7,8-tetrahydroquinazolin-2-amine], the IC50 is at most 100 nM. On to `Cc1nc2cc(-c3ccc4c(c3)CN(c3cc(N)ncc3C#N)CCO4)ccc2[nH]1` [Compound 28, 6-amino-4-[7-(2-methyl-1H-benzimidazol-5-yl)-2,3-dihydro-1,4-benzoxazepin-4(5H)-yl]pyridine-3-carbonitrile], for which the IC50 is at most 100 nM. As to `Cc1nc2cc(-c3ccc4c(c3)CN(c3nc(N)nc5c3CC(C)(C)CC5)CCO4)ccc2[nH]1` [Compound 29, 6,6-dimethyl-4-[7-(2-methyl-1H-benzimidazol-5-yl)-2,3-dihydro-1,4-benzoxazepin-4(5H)-yl]-5,6,7,8-tetrahydroquinazolin-2-amine], the IC50 is at most 100 nM.

On to `Cc1nc2cc(-c3ccc4c(c3)CN(c3nc(CN(C)C)nc(C)c3Br)CCO4)ccc2[nH]1` [Compound 30, 1-{5-bromo-4-methyl-6-[7-(2-methyl-1H-benzimidazol-5-yl)-2,3-dihydro-1,4-benzoxazepin-4(5H)-yl]pyrimidin-2-yl}-N,N-dimethylmethanamine], for which the IC50 is 500 to 2500 nM.

In turn, `Cc1nc2cc(-c3ccc4c(c3)CN(c3nc(CN(C)C)nc(C)c3Cl)CCO4)ccc2[nH]1` [Compound 31, 1-{5-chloro-4-methyl-6-[7-(2-methyl-1H-benzimidazol-5-yl)-2,3-dihydro-1,4-benzoxazepin-4(5H)-yl]pyrimidin-2-yl}-N,N-dimethylmethanamine] had an IC50 of 500 to 2500 nM. Molecule `CCCc1c(C)nc(CN(C)C)nc1N1CCOc2ccc(-c3ccc4nc(C)[nH]c4c3)cc2C1` [Compound 32, N,N-dimethyl-1-{4-methyl-6-[7-(2-methyl-1H-benzimidazol-6-yl)-2,3-dihydro-1,4-benzoxazepin-4(5H)-yl]-5-propylpyrimidin-2-yl}methanamine] had an IC50 of 500 to 2500 nM. With `C=CCc1c(C)nc(CN(C)C)nc1N1CCOc2ccc(-c3ccc4nc(C)[nH]c4c3)cc2C1` [Compound 33, N,N-dimethyl-1-{4-methyl-6-[7-(2-methyl-1H-benzimidazol-6-yl)-2,3-dihydro-1,4-benzoxazepin-4(5H)-yl]-5-prop-2-en-1-ylpyrimidin-2-yl}methanamine], the half-inhibitory concentration (IC50) was at most 100 nM. The molecule `Cc1nc2cc(-c3ccc4c(c3)CN(c3nc(CNCCF)nc(C)c3C(C)C)CCO4)ccc2[nH]1` [Compound 34, 2-fluoro-N-({4-methyl-6-[7-(2-methyl-1H-benzimidazol-5-yl)-2,3-dihydro-1,4-benzoxazepin-4(5H)-yl]-5-(1-methylethyl)pyrimidin-2-yl}methyl)ethanamine] came in with an IC50 of at most 100 nM.

As for `C=CCc1c(C)nc(N)nc1N1CCOc2ccc(-c3ccc4nc(C)[nH]c4c3)cc2C1` [Compound 35, 4-methyl-6-[7-(2-methyl-1H-benzimidazol-5-yl)-2,3-dihydro-1,4-benzoxazepin-4(5H)-yl]-5-prop-2-en-1-ylpyrimidin-2-amine], the IC50 was at most 100 nM. For the molecule `Cc1nc(N)nc(N2CCOc3ccc(-c4ccc5[nH]cnc5c4)cc3C2)c1Cc1ccc(F)cc1` [Compound 36, 4-[7-(1H-benzimidazol-5-yl)-2,3-dihydro-1,4-benzoxazepin-4(5H)-yl]-5-[(4-fluorophenyl)methyl]-6-methylpyrimidin-2-amine], the IC50 was at most 100 nM. The same measure for `COc1ccc2c(N3CCOc4ccc(-c5ccc6[nH]cnc6c5)cc4C3)nc(CN(C)C)nc2c1` [Compound 37, 1-{4-[7-(1H-benzimidazol-5-yl)-2,3-dihydro-1,4-benzoxazepin-4(5H)-yl]-7-(methyloxy)quinazolin-2-yl}-N,N-dimethylmethanamine]: 500 to 2500 nM; for `COc1ccc2c(N3CCOc4ccc(-c5ccc6[nH]c(C)nc6c5)cc4C3)nc(CN(C)C)nc2c1` [Compound 38, N,N-dimethyl-1-{4-[7-(2-methyl-1H-benzimidazol-5-yl)-2,3-dihydro-1,4-benzoxazepin-4(5H)-yl]-7-(methyloxy)quinazolin-2-yl}methanamine]: 500 to 2500 nM.

For `Cc1nc2cc(-c3ccc4c(c3)CN(c3nc(N)nc(C)c3Cc3ccc(F)cc3)CCO4)ccc2[nH]1` [Compound 39, 5-[(4-fluorophenyl)methyl]-4-methyl-6-[7-(2-methyl-1H-benzimidazol-5-yl)-2,3-dihydro-1,4-benzoxazepin-4(5H)-yl]pyrimidin-2-amine], the IC50 is at most 100 nM. Turning to `Cc1nc(N)nc(N2CCOc3ccc(-c4ccc5[nH]cnc5c4)cc3C2)c1C(C)C` [Compound 40, 4-[7-(1H-benzimidazol-5-yl)-2,3-dihydro-1,4-benzoxazepin-4(5H)-yl]-6-methyl-5-(1-methylethyl)pyrimidin-2-amine], the IC50 was at most 100 nM. Consider `Cc1nc2cc(-c3ccc4c(c3)CN(c3nc(N)nc(C)c3C(C)C)CCO4)ccc2[nH]1` [Compound 41, 4-methyl-6-[7-(2-methyl-1H-benzimidazol-5-yl)-2,3-dihydro-1,4-benzoxazepin-4(5H)-yl]-5-(1-methylethyl)pyrimidin-2-amine], for which the IC50 is at most 100 nM. `CCNc1nc2cc(-c3ccc4c(c3)CN(c3nc(N)nc(C)c3C(C)C)CCO4)ccc2[nH]1` [Compound 42, 5-{4-[2-amino-6-methyl-5-(1-methylethyl)pyrimidin-4-yl]-2,3,4,5-tetrahydro-1,4-benzoxazepin-7-yl}-N-ethyl-1H-benzimidazol-2-amine] came in with an IC50 of at most 100 nM. To `Cc1nc2ncc(-c3ccc4c(c3)CN(c3nc(N)nc5c3CC(C)(C)CC5)CCO4)cc2[nH]1` [Compound 44, 6,6-dimethyl-4-[7-(2-methyl-1H-imidazo[4,5-b]pyridin-6-yl)-2,3-dihydro-1,4-benzoxazepin-4(5H)-yl]-5,6,7,8-tetrahydroquinazolin-2-amine] belongs at most 100 nM; to `CC1(C)CCc2nc(N)nc(N3CCOc4ccc(-c5cnc6[nH]cnc6c5)cc4C3)c2C1` [Compound 45, 4-[7-(3H-imidazo[4,5-b]pyridin-6-yl)-2,3-dihydro-1,4-benzoxazepin-4(5H)-yl]-6,6-dimethyl-5,6,7,8-tetrahydroquinazolin-2-amine], at most 100 nM; to `Cc1nc(N)nc(N2CCOc3ccc(-c4cnc5[nH]c(N)nc5c4)cc3C2)c1C(C)C` [Compound 46, 6-{4-[2-amino-6-methyl-5-(1-methylethyl)pyrimidin-4-yl]-2,3,4,5-tetrahydro-1,4-benzoxazepin-7-yl}-3H-imidazo[4,5-b]pyridin-2-amine], at most 100 nM. To `Cc1nc(N)nc(N2CCOc3ccc(-c4cnc5[nH]cnc5c4)cc3C2)c1Cc1ccc(F)cc1` [Compound 47, 5-[(4-fluorophenyl)methyl]-4-[7-(3H-imidazo[4,5-b]pyridin-6-yl)-2,3-dihydro-1,4-benzoxazepin-4(5H)-yl]-6-methylpyrimidin-2-amine] belongs at most 100 nM. In turn, `Cc1nc2cc(-c3ccc4c(c3)CN(c3nc(N)nc(C)c3Cc3ccc(F)cc3)CCO4)cnc2[nH]1` [Compound 48, 5-[(4-fluorophenyl)methyl]-4-methyl-6-[7-(2-methyl-3H-imidazo[4,5-b]pyridin-6-yl)-2,3-dihydro-1,4-benzoxazepin-4(5H)-yl]pyrimidin-2-amine] gave an IC50 of at most 100 nM. The molecule `COc1ccc2c(N3CCOc4ccc(-c5cnc6[nH]cnc6c5)cc4C3)nc(CN(C)C)nc2c1` [Compound 49, 1-{4-[7-(3H-imidazo[4,5-b]pyridin-6-yl)-2,3-dihydro-1,4-benzoxazepin-4(5H)-yl]-7-(methyloxy)quinazolin-2-yl}-N,N-dimethylmethanamine] showed an IC50 of 500 to 2500 nM. To `Cc1nc2cc(-c3ccc4c(c3)CN(c3nc(N)nc(C)c3C(C)C)CCO4)cnc2[nH]1` [Compound 50, 4-methyl-5-(1-methylethyl)-6-[7-(2-methyl-3H-imidazo[4,5-b]pyridin-6-yl)-2,3-dihydro-1,4-benzoxazepin-4(5H)-yl]pyrimidin-2-amine] belongs at most 100 nM.

Molecule `Cc1nc2ccc(-c3cc(F)c4c(c3)CN(c3nc(N)nc(C)c3C(C)C)CCO4)cc2[nH]1` [Compound 51, 4-[9-fluoro-7-(2-methyl-1H-benzimidazol-6-yl)-2,3-dihydro-1,4-benzoxazepin-4(5H)-yl]-6-methyl-5-(1-methylethyl)pyrimidin-2-amine] showed an IC50 of at most 100 nM. As for `Cc1nc(N)nc(N2CCOc3ccc(-c4cnc5[nH]cnc5c4)cc3C2)c1C(C)C` [Compound 52, 4-[7-(3H-imidazo[4,5-b]pyridin-6-yl)-2,3-dihydro-1,4-benzoxazepin-4(5H)-yl]-6-methyl-5-(1-methylethyl)pyrimidine-2-amine], the IC50 is at most 100 nM.

By IC50 is commonly meant the point on the concentration scale where inhibition reaches its midpoint. Lower therefore signals greater potency in that assay.
